Test results from patent US20170107207A1, “AMINOPYRAZOLONE DERIVATIVE” (DAIICHI SANKYO COMPANY, LIMITED, priority 2014, published 2017).

Key:
Assay type in all cases: cell-based
MDA-MB-231 = assay: Cell growth inhibition test, MDA-MB-231; settings: Homo sapiens, 72 h; MDA-MB-231, Breast cancer, 3 days, CellTiter-Glo
Procedure: (§1) A cell growth inhibition test was carried out by treating a cultured cancer cell line with a test compound for a given period and then counting the number of viable cells by CellTiter-Glo Luminescent Cell Viability Assay (manufactured by Promega Corp.).
(§2) The following cells were inoculated to a 384-well plate containing the compound prepared in advance at predetermined concentrations. […]
(§3) The cells thus inoculated were cultured at 37° C. for 3 days under 5% CO2. […] Then, luminescence intensity was measured using a plate reader.
(§4) The number of viable cells and luminescence intensity have been confirmed to correlate with each other. Therefore, the rate of cell growth was calculated according to the following expression: Rate of cell growth (T/C %) of a test compound-supplemented well=100×[(B−C)/(A−C)] wherein A represents the luminescence intensity (final culture date) of a test compound-free well; B represents the luminescence intensity (final culture date) of a test compound-containing well; and C represents the luminescence intensity (day of cell inoculation) of a well at the start of contact of the cells with the test compound.
(§5) T/C % at the concentration of each of the serially diluted test compounds was determined. […]

HT-1080 = assay: Cell growth inhibition test, HT-1080; settings: Homo sapiens, 72 h; HT-1080, Bone and soft tissue tumor, 3 days, CellTiter-Glo
Procedure: as §1, §2, §3, §4, §5

DOHH-2 = assay: Cell growth inhibition test, DOHH-2; settings: Homo sapiens, 72 h; DOHH-2, Lymphoma, 3 days, CellTiter-Glo
Procedure: as §1, §2, §3, §4, §5

RKO = assay: Cell growth inhibition test, RKO; settings: Homo sapiens, 72 h, Large intestine cancer, 3 days, CellTiter-Glo
Procedure: as §1, §2, §3, §4, §5

786-0 = assay: Cell growth inhibition test, 786-0; settings: Homo sapiens, 72 h; 786-0, Kidney cancer, 3 days, CellTiter-Glo
Procedure: as §1, §2, §3, §4, §5

OCI-LY7 = assay: Cell growth inhibition test, OCI-LY7; settings: Homo sapiens, 72 h; OCI-LY7, Lymphoma, 3 days, CellTiter-Glo
Procedure: as §1, §2, §3, §4, §5

MOLT-3 = assay: Cell growth inhibition test, MOLT-3; settings: Homo sapiens, 72 h; MOLT-3, Leukemia, 3 days, CellTiter-Glo
Procedure: as §1, §2, §3, §4, §5

MV-4-11 = assay: Cell growth inhibition test, MV-4-11; settings: Homo sapiens, MV4-11, 72 h; MV-4-11, Leukemia, 3 days, CellTiter-Glo
Procedure: as §1, §2, §3, §4, §5

Hep G2 = assay: Cell growth inhibition test, Hep G2; settings: Homo sapiens, HepG2, 72 h; Hep G2, Liver cancer, 3 days, CellTiter-Glo
Procedure: as §1, §2, §3, §4, §5

SNU-1 = assay: Cell growth inhibition test, SNU-1; settings: Homo sapiens, SNU1, 72 h; SNU-1, Stomach cancer, 3 days, CellTiter-Glo
Procedure: as §1, §2, §3, §4, §5

SW948 = assay: Cell growth inhibition test, SW948; settings: Homo sapiens, 72 h; SW948, Large intestine cancer, 3 days, CellTiter-Glo
Procedure: as §1, §2, §3, §4, §5

HCT-15 = assay: Cell growth inhibition test, HCT-15; settings: Homo sapiens, 72 h; HCT-15, Large intestine cancer, 3 days, CellTiter-Glo
Procedure: as §1, §2, §3, §4, §5

DMS 273 = assay: Cell growth inhibition test, DMS 273; settings: Homo sapiens, 72 h; DMS 273, Lung cancer, 3 days, CellTiter-Glo
Procedure: as §1, §2, §3, §4, §5

U266B1 = assay: Cell growth inhibition test, U266B1; settings: Homo sapiens, 72 h; U266B1, Multiple myeloma, 3 days, CellTiter-Glo
Procedure: as §1, §2, §3, §4, §5

T24 = assay: Cell growth inhibition test, T24; settings: Homo sapiens, T-24, 72 h; T24, Bladder cancer, 3 days, CellTiter-Glo
Procedure: as §1, §2, §3, §4, §5

RPMI 8226 = assay: Cell growth inhibition test, RPMI 8226; settings: Homo sapiens, 72 h; RPMI 8226, Multiple myeloma, 3 days, CellTiter-Glo
Procedure: as §1, §2, §3, §4, §5

| GI50 (MDA-MB-231) | GI50 (HT-1080) | GI50 (786-0) | GI50 (OCI-LY7) | GI50 (MOLT-3) | GI50 (MV-4-11) | GI50 (SNU-1) | GI50 (SW948) | GI50 (HCT-15) | GI50 (U266B1) | GI50 (T24) | SMILES | GI50 (DOHH-2) | GI50 (RKO) | GI50 (Hep G2) | GI50 (DMS 273) | GI50 (RPMI 8226) |
| --- | --- | --- | --- | --- | --- | --- | --- | --- | --- | --- | --- | --- | --- | --- | --- | --- |
| 350 nM | 220 nM | 680 nM | 130 nM | 110 nM | 210 nM | 230 nM | 3900 nM | 2700 nM | 220 nM | 650 nM | CCOc1ccc(Cl)cc1C(=O)NCC(C)(C)CC(=O)Nc1c([C@H](C)CN(C)C)n(C)n(-c2ccccc2)c1=O [Example 68, 5-Chloro-N-[4-({5-[(1R)-2-(dimethylamino)-1-methylethyl]-1-methyl-3-oxo-2-phenyl-2,3-dihydro-1H-pyrazol-4-yl}amino)-2,2-dimethyl-4-oxobutyl]-2-ethoxybenzamide] | 240 nM | 240 nM | 580 nM | 310 nM | 140 nM |
| 890 nM | 520 nM | 920 nM | 370 nM | 190 nM | 490 nM | 710 nM | 4200 nM | 4000 nM | 620 nM | 850 nM | CCOc1ncc(Cl)cc1C(=O)NCC(C)(C)CC(=O)Nc1c([C@H](C)CN(C)C)n(C)n(-c2ccccc2)c1=O [Example 73, 5-Chloro-N-[4-({5-[(1R)-2-(dimethylamino)-1-methylethyl]-1-methyl-3-oxo-2-phenyl-2,3-dihydro-1H-pyrazol-4-yl}amino)-2,2-dimethyl-4-oxobutyl]-2-ethoxypyridine-3-carboxamide] | 630 nM | 570 nM | 1100 nM | 780 nM | 180 nM |
| 770 nM | 350 nM | 320 nM | 150 nM | 150 nM | 400 nM | 580 nM | 1400 nM | 800 nM | 440 nM | 490 nM | CCOc1cc(F)c(Cl)cc1C(=O)NCC(C)(C)CC(=O)Nc1c(COC)n(C)n(-c2ccccc2)c1=O [Example 113, 5-Chloro-2-ethoxy-4-fluoro-N-(4-{[5-(methoxymethyl)-1-methyl-3-oxo-2-phenyl-2,3-dihydro-1H-pyrazol-4-yl]amino}-2,2-dimethyl-4-oxobutyl)benzamide] | 460 nM | 310 nM | 380 nM | 540 nM | 160 nM |
